IC50 data for 1 compound are collected here from US20240124410A1, “SMALL MOLECULES AND THEIR USE AS MALT1 INHIBITORS” (University of Pittsburgh - Of the Commonwealth System of …, priority 2021, published 2024).

One assay concerns the target T1, OPRM1 (Homo sapiens, UniProt P35372).
T1 construct: Eurofins
In words: Eurofins SAFETYscan 78-target panel, off-target effects, OPRM1. The assay is classed as biochemical. Particulars: antagonist / blocker / inhibitor mode. The procedure: (§1) FIG. 9. Table summarizing the Eurofins analysis of potential off-target effects of M1i-124. […] values above 10 μM are generally considered to be acceptable. FIG. 10. Representative hematoxylin and eosin (H&E) staining of organ sections (lung, heart, kidney, liver and adrenal) from control and M1i-124 treated mice described in FIG. 6.
(§2) Studies were performed using the services of Touchstone Biosciences and Eurofins Pharma Discovery Services. […] All blood samples (30-50 ul per sample) were taken via tail vein at 5, 15, and 30 minutes, and 1, 2, 4, 6, 8, and 24 hours after dosing. Blood samples are collected in Greiner MiniCollect K2 EDTA tubes, placed on ice, and within 30 minutes, centrifuged at 15,000 g for 5 minutes to obtain plasma samples. All plasma samples are stored at −70° C. until analysis. Plasma samples were prepared for analysis by LC-MS/MS, and key PK parameters, including terminal half-life (t 112), initial plasma concentration (C0), area under the plasma concentration vs. time curve (AUC), volume of distribution at steady-state (Vss), total plasma clearance (CLp), and mean residence time (MRT), were measured.
(§3) Assay details are available through Eurofins.

The next assay concerns the target T2, DRD1 (Homo sapiens, UniProt P21728).
T2 construct: Eurofins
The experiment in a line: Eurofins SAFETYscan 78-target panel, off-target effects, DRD1. The assay is classed as biochemical. The settings on record: antagonist / blocker / inhibitor mode. The procedure:
as §1, §2, §3

T2 sequence (P21728 whole entry): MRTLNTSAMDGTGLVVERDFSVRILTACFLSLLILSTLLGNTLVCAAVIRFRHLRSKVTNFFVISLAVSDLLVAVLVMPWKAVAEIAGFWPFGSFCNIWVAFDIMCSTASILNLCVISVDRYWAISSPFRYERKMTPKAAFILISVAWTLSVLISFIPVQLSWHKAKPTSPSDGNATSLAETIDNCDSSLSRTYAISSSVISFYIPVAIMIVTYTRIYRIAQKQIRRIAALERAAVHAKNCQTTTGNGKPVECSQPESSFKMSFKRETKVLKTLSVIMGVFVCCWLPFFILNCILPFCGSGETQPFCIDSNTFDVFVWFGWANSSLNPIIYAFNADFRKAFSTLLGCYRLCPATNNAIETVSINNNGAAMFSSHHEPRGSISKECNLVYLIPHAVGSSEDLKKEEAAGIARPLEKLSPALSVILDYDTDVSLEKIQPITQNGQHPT
T1 sequence (P35372 whole entry): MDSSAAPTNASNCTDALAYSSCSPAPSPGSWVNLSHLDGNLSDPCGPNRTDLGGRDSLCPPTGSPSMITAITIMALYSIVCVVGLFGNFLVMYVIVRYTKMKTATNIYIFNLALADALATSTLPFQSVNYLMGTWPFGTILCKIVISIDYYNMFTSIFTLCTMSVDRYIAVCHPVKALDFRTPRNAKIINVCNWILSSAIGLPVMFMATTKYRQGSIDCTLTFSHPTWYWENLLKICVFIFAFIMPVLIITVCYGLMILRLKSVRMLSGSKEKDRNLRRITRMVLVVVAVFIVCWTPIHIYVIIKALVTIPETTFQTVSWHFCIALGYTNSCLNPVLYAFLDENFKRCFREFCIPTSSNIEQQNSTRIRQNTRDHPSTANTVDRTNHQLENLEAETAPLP

In the case of `O=S(=O)(NCc1ccc2c(c1)OCO2)c1ccc(Cc2ccc(S(=O)(=O)NCc3ccc4c(c3)OCO4)cc2)cc1` [M1i-124], the IC50 against OPRM1 was determined as 3700 nM; on DRD1, 1900 nM.

In general, IC50 refers to the point on the concentration scale where inhibition reaches its midpoint. Read a low IC50 as higher potency.
